Data taken from ChEMBL document CHEMBL1909046, “DrugMatrix in vitro pharmacology data”.

How the values were obtained:
[1] = DRUGMATRIX: Leukotriene, BLT (LTB4) radioligand binding (ligand: [3H]LTB4); type: cell membranes, Membrane; conditions: u-937; Not Active = under 50% inhibition at 10 µM
Progesterone receptor = molecular target: T1, Progesterone receptor (Bos taurus, UniProt Q690N0); assay: DRUGMATRIX: Progesterone radioligand binding (ligand: [3H] R-5020); type: tissue-based, Uterus; conditions: Not Active = under 50% inhibition at 10 µM
T1 sequence (Q690N0 whole entry): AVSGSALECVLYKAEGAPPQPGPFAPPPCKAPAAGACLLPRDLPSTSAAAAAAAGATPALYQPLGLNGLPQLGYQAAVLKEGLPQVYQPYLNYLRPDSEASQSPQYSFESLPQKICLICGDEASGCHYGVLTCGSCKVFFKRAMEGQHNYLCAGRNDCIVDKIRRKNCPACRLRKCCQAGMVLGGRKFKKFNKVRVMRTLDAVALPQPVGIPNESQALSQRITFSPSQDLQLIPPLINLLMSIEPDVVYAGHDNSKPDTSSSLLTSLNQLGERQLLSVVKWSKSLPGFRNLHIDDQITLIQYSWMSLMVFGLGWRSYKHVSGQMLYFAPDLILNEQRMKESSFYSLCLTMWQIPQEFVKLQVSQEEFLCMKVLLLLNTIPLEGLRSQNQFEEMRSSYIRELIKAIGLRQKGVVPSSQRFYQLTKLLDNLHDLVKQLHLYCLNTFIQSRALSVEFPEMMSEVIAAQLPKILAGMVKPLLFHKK

Melanocortin receptor 5 = Melanocortin receptor 5 (Homo sapiens, UniProt P33032); type: cell membranes, HEK293, Membrane; conditions: hek293; further: in other assays of this panel Not Active means under 50% inhibition at 10 µM
[2] = molecular target: Delta-type opioid receptor (Homo sapiens, UniProt P41143); type: cell membranes, HEK293, Membrane; conditions: hek293; further: in other assays of this panel Not Active means under 50% inhibition at 10 µM
[3] = molecular target: Beta-1 adrenergic receptor (Homo sapiens, UniProt P08588); assay: DRUGMATRIX: Adrenergic beta1 radioligand binding (ligand: [125I] Cyanopindolol); type: cell membranes, CHO-K1, Membrane; conditions: cho-k1; Not Active = under 50% inhibition at 10 µM
[4] = molecular target: T2, Vasoactive intestinal polypeptide receptor 1 (Homo sapiens, UniProt P32241); type: cell membranes, Membrane; conditions: ht-29; further: in other assays of this panel Not Active means under 50% inhibition at 10 µM
T2 sequence (P32241 whole entry): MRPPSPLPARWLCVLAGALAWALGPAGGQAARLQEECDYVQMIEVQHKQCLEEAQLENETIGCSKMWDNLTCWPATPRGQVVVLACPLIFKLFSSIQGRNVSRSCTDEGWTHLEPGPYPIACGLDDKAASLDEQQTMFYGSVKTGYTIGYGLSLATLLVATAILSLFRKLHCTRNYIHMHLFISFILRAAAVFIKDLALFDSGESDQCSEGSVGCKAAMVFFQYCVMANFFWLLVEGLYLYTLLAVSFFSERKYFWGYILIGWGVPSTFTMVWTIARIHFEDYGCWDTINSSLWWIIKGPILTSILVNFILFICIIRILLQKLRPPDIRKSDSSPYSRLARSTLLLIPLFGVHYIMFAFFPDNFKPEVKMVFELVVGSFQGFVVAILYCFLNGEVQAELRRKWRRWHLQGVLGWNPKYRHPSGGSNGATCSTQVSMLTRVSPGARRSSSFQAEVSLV

[5] = DRUGMATRIX: beta-Lactamase enzyme inhibition (substrate: Nitrocefin); design: species or system Bacillus cereus; conditions: Not Active = under 50% inhibition at 10 µM
[6] = DRUGMATRIX: Interleukin IL-1 radioligand binding (ligand: [125I] interleukin 1beta); type: cell membranes, Membrane; conditions: nih3t3; Not Active = under 50% inhibition at 10 µM
[7] = molecular target: Prostaglandin G/H synthase 1 (Homo sapiens, UniProt P23219); assay: biochemical; type: tissue-based, Platelet; conditions: platelet;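 further: inhibition of COX-1 enzyme activity, with arachidonic acid supplied as substrate; in other assays of this panel Not Active means under 50% inhibition at 10 µM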
[8] = molecular target: T3, C-C chemokine receptor type 4 (Homo sapiens, UniProt P51679); type: cell membranes, Membrane; conditions: chem-1; further: in other assays of this panel Not Active means under 50% inhibition at 10 µM
T3 sequence (P51679 whole entry): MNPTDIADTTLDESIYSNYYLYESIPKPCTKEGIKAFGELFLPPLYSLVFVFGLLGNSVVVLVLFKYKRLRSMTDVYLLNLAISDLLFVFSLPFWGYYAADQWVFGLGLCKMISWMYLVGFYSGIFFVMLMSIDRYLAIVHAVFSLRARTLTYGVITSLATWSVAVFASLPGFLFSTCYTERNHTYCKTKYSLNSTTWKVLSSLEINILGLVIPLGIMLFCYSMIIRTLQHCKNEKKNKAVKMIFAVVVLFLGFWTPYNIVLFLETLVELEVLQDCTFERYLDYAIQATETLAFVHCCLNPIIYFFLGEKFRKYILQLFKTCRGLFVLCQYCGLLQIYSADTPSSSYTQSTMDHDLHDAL

[9] = molecular target: T4, 5-hydroxytryptamine receptor 1A (Rattus norvegicus, UniProt P19327); type: cell membranes, CHO-K1, Membrane; conditions: cho-k1; further: in other assays of this panel Not Active means under 50% inhibition at 10 µM
T4 sequence (P19327 whole entry): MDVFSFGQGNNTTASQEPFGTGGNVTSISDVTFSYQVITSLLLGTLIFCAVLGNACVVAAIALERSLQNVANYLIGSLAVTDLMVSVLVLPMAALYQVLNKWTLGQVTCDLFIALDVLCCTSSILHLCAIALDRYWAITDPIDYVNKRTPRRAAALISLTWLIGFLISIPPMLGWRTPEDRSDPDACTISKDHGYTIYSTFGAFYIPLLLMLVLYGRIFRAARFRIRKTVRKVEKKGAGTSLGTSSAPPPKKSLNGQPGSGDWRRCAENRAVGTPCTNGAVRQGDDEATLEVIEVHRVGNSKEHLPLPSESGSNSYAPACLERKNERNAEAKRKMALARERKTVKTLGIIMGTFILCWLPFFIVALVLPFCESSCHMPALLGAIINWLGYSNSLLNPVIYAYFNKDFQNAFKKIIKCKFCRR

[10] = DRUGMATRIX: Calcium Channel Type L, Dihydropyridine radioligand binding (ligand: [3H] Nitrendipine); type: cell membranes, Rattus norvegicus, Wistar, Cerebral cortex, Membrane; conditions: Not Active = under 50% inhibition at 10 µM
Melanocortin receptor 3 = Melanocortin receptor 3 (Homo sapiens, UniProt P41968); type: cell membranes, Membrane; conditions: hek293; further: in other assays of this panel Not Active means under 50% inhibition at 10 µM
[11] = molecular target: T5, Neuropeptide Y receptor type 1 (Homo sapiens, UniProt P25929); type: cell membranes, Membrane; conditions: sk-n-mc; further: in other assays of this panel Not Active means under 50% inhibition at 10 µM
T5 sequence (P25929 whole entry): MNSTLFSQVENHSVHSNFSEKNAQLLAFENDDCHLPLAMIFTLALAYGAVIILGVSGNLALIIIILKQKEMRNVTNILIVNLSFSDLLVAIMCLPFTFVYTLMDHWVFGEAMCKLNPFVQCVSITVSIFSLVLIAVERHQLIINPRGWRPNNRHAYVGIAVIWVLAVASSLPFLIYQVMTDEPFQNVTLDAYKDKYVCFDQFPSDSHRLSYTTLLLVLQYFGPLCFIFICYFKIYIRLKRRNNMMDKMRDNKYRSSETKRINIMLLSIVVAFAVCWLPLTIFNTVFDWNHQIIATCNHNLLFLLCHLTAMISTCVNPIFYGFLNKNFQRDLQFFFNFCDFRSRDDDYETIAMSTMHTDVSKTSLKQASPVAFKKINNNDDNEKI

Prostaglandin G/H synthase 1, sequence (P23219 whole entry): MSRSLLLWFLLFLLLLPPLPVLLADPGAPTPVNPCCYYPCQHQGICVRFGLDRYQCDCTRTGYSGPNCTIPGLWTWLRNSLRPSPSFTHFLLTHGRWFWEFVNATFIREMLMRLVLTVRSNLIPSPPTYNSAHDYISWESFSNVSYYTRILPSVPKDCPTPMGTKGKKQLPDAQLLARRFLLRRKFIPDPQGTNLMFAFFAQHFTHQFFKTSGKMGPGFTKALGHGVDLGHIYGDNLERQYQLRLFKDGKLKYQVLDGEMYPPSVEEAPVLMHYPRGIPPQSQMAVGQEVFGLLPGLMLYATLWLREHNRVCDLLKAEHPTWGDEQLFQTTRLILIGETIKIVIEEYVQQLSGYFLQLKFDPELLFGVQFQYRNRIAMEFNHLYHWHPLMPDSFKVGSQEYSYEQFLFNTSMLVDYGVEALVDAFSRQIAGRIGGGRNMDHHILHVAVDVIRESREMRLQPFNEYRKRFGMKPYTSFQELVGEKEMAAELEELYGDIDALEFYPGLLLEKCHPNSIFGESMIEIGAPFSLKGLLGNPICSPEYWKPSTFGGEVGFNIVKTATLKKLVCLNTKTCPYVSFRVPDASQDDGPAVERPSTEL
Delta-type opioid receptor, sequence (P41143 whole entry): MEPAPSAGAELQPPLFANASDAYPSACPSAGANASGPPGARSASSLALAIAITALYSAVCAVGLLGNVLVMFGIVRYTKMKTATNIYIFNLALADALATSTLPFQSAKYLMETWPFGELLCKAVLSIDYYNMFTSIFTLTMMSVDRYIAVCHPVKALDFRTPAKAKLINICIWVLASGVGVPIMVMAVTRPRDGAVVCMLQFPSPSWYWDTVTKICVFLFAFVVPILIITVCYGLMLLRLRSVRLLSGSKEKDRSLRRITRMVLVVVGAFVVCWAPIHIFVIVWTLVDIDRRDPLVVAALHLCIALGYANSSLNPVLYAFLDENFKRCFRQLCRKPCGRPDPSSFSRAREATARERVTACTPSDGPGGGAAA
Beta-1 adrenergic receptor, sequence (P08588 whole entry): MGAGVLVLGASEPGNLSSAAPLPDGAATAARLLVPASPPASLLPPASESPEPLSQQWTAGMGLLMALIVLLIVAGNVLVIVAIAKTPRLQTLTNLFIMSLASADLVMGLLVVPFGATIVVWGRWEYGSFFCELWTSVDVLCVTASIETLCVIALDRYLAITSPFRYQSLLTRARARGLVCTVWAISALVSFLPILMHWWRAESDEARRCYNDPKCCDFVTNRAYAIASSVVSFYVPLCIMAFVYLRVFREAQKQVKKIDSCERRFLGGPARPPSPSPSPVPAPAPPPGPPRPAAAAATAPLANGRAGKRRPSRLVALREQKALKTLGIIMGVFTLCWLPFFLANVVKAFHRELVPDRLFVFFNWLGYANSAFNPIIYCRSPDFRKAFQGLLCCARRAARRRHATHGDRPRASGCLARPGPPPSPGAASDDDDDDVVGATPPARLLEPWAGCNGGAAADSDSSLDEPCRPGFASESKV
Melanocortin receptor 3, sequence (P41968 whole entry): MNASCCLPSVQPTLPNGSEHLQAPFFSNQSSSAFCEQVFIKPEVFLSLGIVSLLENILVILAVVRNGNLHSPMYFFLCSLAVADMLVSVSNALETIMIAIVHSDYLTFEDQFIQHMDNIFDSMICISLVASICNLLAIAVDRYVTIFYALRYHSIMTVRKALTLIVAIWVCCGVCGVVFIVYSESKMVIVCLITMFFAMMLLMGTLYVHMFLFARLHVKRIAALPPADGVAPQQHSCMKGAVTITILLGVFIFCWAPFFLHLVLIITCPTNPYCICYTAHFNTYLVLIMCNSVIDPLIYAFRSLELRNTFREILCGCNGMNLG
Melanocortin receptor 5, sequence (P33032 whole entry): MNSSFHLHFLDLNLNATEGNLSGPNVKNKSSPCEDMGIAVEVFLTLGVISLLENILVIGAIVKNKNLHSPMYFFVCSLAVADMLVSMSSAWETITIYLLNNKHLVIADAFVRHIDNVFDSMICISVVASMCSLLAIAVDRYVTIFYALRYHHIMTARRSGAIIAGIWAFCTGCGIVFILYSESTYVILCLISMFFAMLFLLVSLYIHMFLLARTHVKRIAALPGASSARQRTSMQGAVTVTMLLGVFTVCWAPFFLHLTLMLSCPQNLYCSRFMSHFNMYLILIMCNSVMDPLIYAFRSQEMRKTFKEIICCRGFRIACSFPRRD

SMILES	IC50 [1]	Ki [1]	IC50 (Progesterone receptor)	IC50 (Melanocortin receptor 5)	IC50 [2]	IC50 [3]	IC50 [4]	IC50 [5]	Ki [5]	IC50 [6]	Ki [6]	IC50 [7]	IC50 [8]	IC50 [9]	IC50 [10]	Ki [10]	IC50 (Melanocortin receptor 3)	IC50 [11]	IC50 ([10]; read-out: IC50) [nM]	Ki ([10]; read-out: Ki) [nM]
NC(CO)(CO)CO [TROMETHAMINE]	Not Active	Not Active	Not Active	Not Active	Not Active	Not Active	Not Active	Not Active	Not Active	Not Active	Not Active	Not Active	Not Active	Not Active	Not Active	Not Active	Not Active	Not Active	–	–
CCOC(=O)[C@H](CCc1ccccc1)N[C@@H](C)C(=O)N1[C@H](C(=O)O)C[C@@H]2CCC[C@@H]21	Not Active	Not Active	Not Active	Not Active	Not Active	Not Active	Not Active	Not Active	Not Active	Not Active	Not Active	Not Active	Not Active	Not Active	Not Active	Not Active	Not Active	Not Active	–	–
COc1cc(C(=O)NC2CCCNC2)cc(OC)c1OC (centres undefined) [TROXIPIDE]	Not Active	Not Active	Not Active	Not Active	Not Active	Not Active	Not Active	Not Active	Not Active	Not Active	Not Active	Not Active	Not Active	Not Active	Not Active	Not Active	Not Active	Not Active	–	–
NNC(=O)c1ccncc1 [ISONIAZID]	Not Active	Not Active	Not Active	Not Active	Not Active	Not Active	Not Active	Not Active	Not Active	Not Active	Not Active	Not Active	Not Active	Not Active	Not Active	Not Active	Not Active	Not Active	–	–
COC(=O)C1=C(C)NC(C)=C(C(=O)OC)C1c1ccccc1[N+](=O)[O-] [NIFEDIPINE]	Not Active	Not Active	Not Active	Not Active	Not Active	Not Active	Not Active	Not Active	Not Active	Not Active	Not Active	Not Active	Not Active	Not Active	–	–	Not Active	Not Active	48	31
Cc1ncc([N+](=O)[O-])n1CC(C)O (centres undefined) [SECNIDAZOLE]	Not Active	Not Active	Not Active	Not Active	Not Active	Not Active	Not Active	Not Active	Not Active	Not Active	Not Active	Not Active	Not Active	Not Active	Not Active	Not Active	Not Active	Not Active	–	–
Cc1ccc(C(=O)C(C)CN2CCCCC2)cc1 (centres undefined) [TOLPERISONE]	Not Active	Not Active	Not Active	Not Active	Not Active	Not Active	Not Active	Not Active	Not Active	Not Active	Not Active	Not Active	Not Active	Not Active	Not Active	Not Active	Not Active	Not Active	–	–
CN[C@H](CC(C)C)C(=O)N[C@H]1C(=O)N[C@@H](CC(N)=O)C(=O)N[C@H]2C(=O)N[C@H]3C(=O)N[C@H](C(=O)N[C@H](C(=O)O)c4cc(O)cc(O)c4-c4cc3ccc4O)[C@H](O)c3ccc(c(Cl)c3)Oc3cc2cc(c3O[C@@H]2O[C@H](CO)[C@@H](O)[C@H](O)[C@H]2O[C@H]2C[C@](C)(N)[C@H](O)[C@H](C)O2)Oc2ccc(cc2Cl)[C@H]1O [VANCOMYCIN]	Not Active	Not Active	Not Active	Not Active	Not Active	Not Active	Not Active	Not Active	Not Active	Not Active	Not Active	Not Active	Not Active	Not Active	Not Active	Not Active	Not Active	Not Active	–	–
